Columns and labels:
Assay type in all cases: cell-based
[1] = test system: MV4-11; assay: Cell proliferation inhibition in AML cell line MV4-11 (Alamar Blue); conditions: Homo sapiens, MV4-11, 72 hours, read-out: Cell proliferation inhibitory activity (GI50) MV4-11
Excerpt: (§1) Cell proliferation inhibition experiments on acute myeloid leukemia (AML) cell lines tested FLT3 inhibitory activity using MV4-11, Molm-13, and Molm-14 cells, which are FLT3-ITD-expressed AML cell lines. The origin of all cell lines is human-derived cell lines, and the place of purchase and culture conditions of each cell line are as follows.
(§2) MV4-11 cells were purchased form the American Type Culture Collection (ATCC, Rockville, MD, USA, cat #CRL-9591), Molm-13 (DSMZ, cat #ACC554), Molm-14 (DSMZ, cat #ACC777), and then cultured in RPMI 1640 medium (Corning Co. 10-040-CV) supplemented with 10% fetal bovine serum, 1% penicillin/streptomycin and 4 mM L-glutamine (Life Technology, GrandIsland, NY).
(§3) Cell viability was evaluated by Resazurin redox-based analysis method with Alamar Blue Assay Kit (Invitrogen, USA). Specifically, for MV4-11, Molm-13 and Molm-14 cells, 8000 cells were plated on 384-well plates in 45 μl of medium. Compounds were treated with dimethyl sulfoxide (DMSO) as a negative control group. After 3 days (72 hours) of compound addition, 5 μl of Alamar Blue kit reagent was added to each well of 384-well plate and incubated at 37° C. for 2 hours in a humidified CO2 incubator. After incubation, fluorescence density (Flu) was measured at a wavelength of 544 nm and 590 nm using SpectraMax iD3 Multi Mode Microplate Reader (Molecular Devices, ID3-STD). GI50 was calculated by nonlinear regression using Prism version 5.01 (GraphPad, LaJolla, CA, USA).

[2] = test system: Molm-13; assay: Cell proliferation inhibition in AML cell line Molm-13 (Alamar Blue); conditions: Homo sapiens, Molm-13, 72 hours, read-out: Cell proliferation inhibitory activity (GI50) Molm-13
Excerpt: as §1, §2, §3

[3] = test system: Molm-14; assay: Cell proliferation inhibition in AML cell line Molm-14 (Alamar Blue); conditions: Homo sapiens, Molm-14, 72 hours, read-out: Cell proliferation inhibitory activity (GI50) Molm-14
Excerpt: as §1, §2, §3

| SMILES | GI50 [1] [nM] | GI50 [2] [nM] | GI50 [3] [nM] |
| --- | --- | --- | --- |
| O=C1Nc2cc(Br)ccc2/C1=C1/Nc2ccccc2/C1=N\OCCN1CCNCC1 [Comparative Example 1, reference compound] | 20 | 11.2 | 9.36 |
| O=C1Nc2ccc(Br)cc2/C1=C1/Nc2ccccc2/C1=N\OCCN1CCNCC1 [Comparative Example 2, reference compound] | 7 | 4.08 | 4.08 |
| O=C1Nc2ccc(F)cc2/C1=C1/Nc2ccccc2/C1=N\OCCN1CCNCC1 [Comparative Example 3, reference compound] | 3.7 | 2.53 | 1.6 |

— US20240010635A1, “NOVEL INDIRUBIN DERIVATIVES HAVING HETEROBICYCLIC MOIETIES AND THE USE THEREOF” (priority 2022, published 2024)
